Literature values in US20140037713A1, “TRANSDERMAL COMPOSITIONS FOR ANTI-CHOLINERGIC AGENTS” (ANTARES PHARMA IPL, AG, priority 2012, published 2014).

Settings: Ref. 2

CCN(CC)CC#CCOC(=O)C(O)(c1ccccc1)C1CCCCC1 (racemic) [Oxybutynin, d,l (racemic) 4-diethylamino-2-butynyl phenylcyclohexylglycolate]
Dissociation const. (pKa): 8.04
